Test results reported in patent US20140243414A1, “PHARMACEUTICAL COMPOSITIONS OF CETP INHIBITORS” (Japan Tobacco Inc., priority 2003, published 2014).
Where two headings read alike, the source gives them in different places.

Tests used:
CETP [1] = target: T1, CETP (Homo sapiens, UniProt P11597); test: Relative CETP activity after single oral doses, Japanese males (Example 7); type: in vivo; conditions: for response vs control in vivo at 100 mg: 100 mg with food; for response vs control in vivo at 100 mg / response vs control in vivo at 300 mg / response vs control in vivo at 600 mg / response vs control in vivo at 900 mg / response vs control in vivo at 1200 mg / response vs control in vivo at 1500 mg / response vs control in vivo at 1800 mg: read-out: Percent CETP activity relative to pre-dose; for response vs control in vivo at 300 mg: 300 mg with food; for response vs control in vivo at 600 mg: 600 mg with food; for response vs control in vivo at 900 mg: 900 mg with food; for response vs control in vivo at 1200 mg: 1200 mg with food; for response vs control in vivo at 1500 mg: 1500 mg with food; for response vs control in vivo at 1800 mg: 1800 mg with food
T1 construct: from tissue; host or cells: blood / plasma of human subjects dosed orally with Compound I
T1 sequence (P11597 18-493): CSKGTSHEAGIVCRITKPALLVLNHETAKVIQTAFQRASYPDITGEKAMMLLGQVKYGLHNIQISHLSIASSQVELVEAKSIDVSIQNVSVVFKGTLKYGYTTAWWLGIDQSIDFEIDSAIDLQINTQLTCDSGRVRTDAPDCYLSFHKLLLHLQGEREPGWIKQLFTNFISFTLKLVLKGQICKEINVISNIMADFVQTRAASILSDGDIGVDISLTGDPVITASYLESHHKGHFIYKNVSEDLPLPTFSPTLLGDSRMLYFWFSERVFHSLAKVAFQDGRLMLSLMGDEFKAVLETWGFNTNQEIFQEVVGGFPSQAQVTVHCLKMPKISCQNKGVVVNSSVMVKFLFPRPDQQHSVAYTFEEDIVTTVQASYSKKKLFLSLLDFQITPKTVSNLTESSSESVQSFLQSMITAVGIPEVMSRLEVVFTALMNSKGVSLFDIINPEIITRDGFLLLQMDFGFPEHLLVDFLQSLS
Procedure: Administration, dosing, and sampling schedules were commensurate with those described in Example 1. The tablets were prepared as described in Example 1.
Relative CETP activities (calculated as a percentage of baseline CETP activity) and standard deviations (SD) were measured, and the resulting data is summarized in Table 8.

CETP [2] = target: T1, CETP; test: CETP activity after 4 weeks daily treatment, healthy volunteers (Example 9); type: in vivo; conditions: for Absolute change in CETP activity: 4 weeks treatment, mean ± SD; for Decrease in CETP activity relative to baseline: 4 weeks
Procedure: (§1) Each patient took three tablets after breakfast each day for 4 weeks. Patients either took three placebo tablets (placebo); one 300 mg tablet and two placebo tablets (low dose); two 300 mg tablets and one placebo tablet (medium dose); or three 300 mg tablets (high dose). Tablet preparation was as described as in Example 1.
(§2) The testing period consisted of (a) a run-in period of 4 weeks, followed by (b) 4 weeks of treatment, and (c) 4 weeks of monitoring. Blood samples were drawn after an overnight fast. […] HDL-C was determined with a heparin MnCl2 precipitation reagent and LDL-C was calculated by the Friedewald formula (see, de Grooth et al., supra). CETP activity was measured as described in Example 5.
(§3) Table 11 describes the absolute changes in the assayed properties after 4 weeks of treatment.

TC, HDL-C, LDL-C = test: Lipid levels after 4 weeks daily treatment, healthy volunteers (Example 9); type: in vivo, human; conditions: for Decrease in TC/HDL-C ratio relative to baseline / Increase in HDL-C levels relative to baseline: 4 weeks; for Absolute change in HDL-C / Absolute change in TC / Absolute change in TC/HDL-C ratio / Absolute change in LDL-C: 4 weeks treatment, mean ± SD; for Absolute change in LDL-C: LDL-C by Friedewald formula
Procedure: as §1, §2, §3

## CCC(CC)CC1(C(=O)Nc2ccccc2SC(=O)C(C)C)CCCCC1 [Compound I, S-[2-([[1-(2-ethylbutyl)cyclohexyl]carbonyl]amino)phenyl]2-methylpropanethioate]
CETP [1]; post-study
  response vs control in vivo at 100 mg: 99.2%
  response vs control in vivo at 300 mg: 96.1%
  response vs control in vivo at 600 mg: 103%
  response vs control in vivo at 900 mg: 95.1%
  response vs control in vivo at 1200 mg: 95.2%
  response vs control in vivo at 1500 mg: 96.9%
  response vs control in vivo at 1800 mg: 93%
CETP [1]; 300 mg, 6 hours after administration
  Decrease in CETP activity relative to pre-dose: about 19.5%
CETP [1]; 600 mg, 6 hours after administration
  Decrease in CETP activity relative to pre-dose: about 62%
CETP [1]; 900 mg, 4 hours after administration
  Decrease in CETP activity relative to pre-dose: about 76%
CETP [1]; 1 h, 1 h
  response vs control in vivo at 100 mg: 96.2%
  response vs control in vivo at 300 mg: 100%
  response vs control in vivo at 600 mg: 100%
  response vs control in vivo at 900 mg: 100%
  response vs control in vivo at 1200 mg: 94.2%
  response vs control in vivo at 1500 mg: 101%
  response vs control in vivo at 1800 mg: 85.3%
CETP [1]; 2 h, 2 h
  response vs control in vivo at 100 mg: 92%
  response vs control in vivo at 300 mg: 90.7%
  response vs control in vivo at 600 mg: 87.8%
  response vs control in vivo at 900 mg: 52.1%
  response vs control in vivo at 1200 mg: 54%
  response vs control in vivo at 1500 mg: 85.7%
  response vs control in vivo at 1800 mg: 15.6%
CETP [1]; 4 h, 4 h
  response vs control in vivo at 100 mg: 93.2%
  response vs control in vivo at 300 mg: 83.1%
  response vs control in vivo at 600 mg: 52.6%
  response vs control in vivo at 900 mg: ~24%
  response vs control in vivo at 1200 mg: 12.1%
  response vs control in vivo at 1500 mg: 13.3%
  response vs control in vivo at 1800 mg: 6%
CETP [1]; 6 h, 6 h
  response vs control in vivo at 100 mg: 90.4%
  response vs control in vivo at 300 mg: ~80.5%
  response vs control in vivo at 600 mg: ~38%
  response vs control in vivo at 900 mg: 24.1%
  response vs control in vivo at 1200 mg: 10.5%
  response vs control in vivo at 1500 mg: 10.6%
  response vs control in vivo at 1800 mg: 8.4%
CETP [1]; 8 h, 8 h
  response vs control in vivo at 100 mg: 90.4%
  response vs control in vivo at 300 mg: 80.6%
  response vs control in vivo at 600 mg: 39.1%
  response vs control in vivo at 900 mg: 29.8%
  response vs control in vivo at 1200 mg: 14.7%
  response vs control in vivo at 1500 mg: 15.4%
  response vs control in vivo at 1800 mg: 12.2%
CETP [1]; 24 h, 24 h
  response vs control in vivo at 100 mg: 99.2%
  response vs control in vivo at 300 mg: 88.8%
  response vs control in vivo at 600 mg: 65.5%
  response vs control in vivo at 900 mg: 60.5%
  response vs control in vivo at 1200 mg: 47.6%
  response vs control in vivo at 1500 mg: 53.7%
  response vs control in vivo at 1800 mg: 49.5%
CETP [2]; 300 mg per day after breakfast
  Absolute change in CETP activity: −15.4 ± 11.9 % of control
CETP [2]; 300 mg per day with food
  Decrease in CETP activity relative to baseline: about 17%
CETP [2]; 600 mg per day after breakfast
  Absolute change in CETP activity: −29.6 ± 19.5 % of control
CETP [2]; 600 mg per day with food
  Decrease in CETP activity relative to baseline: about 33%
CETP [2]; 900 mg per day after breakfast
  Absolute change in CETP activity: −37.2 ± 17.6 % of control
CETP [2]; 900 mg per day with food
  Decrease in CETP activity relative to baseline: about 39%
TC, HDL-C, LDL-C; 300 mg per day
  Decrease in TC/HDL-C ratio relative to baseline: about 13%
  Increase in HDL-C levels relative to baseline: about 15%
  Absolute change in HDL-C: 0.18 ± 0.15 mmol/L
  Absolute change in TC: −0.1 ± 0.5^ mmol/L
  Absolute change in TC/HDL-C ratio: −0.7 ± 0.8
  Absolute change in LDL-C: −0.2 ± 0.5^ mmol/L
TC, HDL-C, LDL-C; 600 mg per day
  Decrease in TC/HDL-C ratio relative to baseline: about 18%
  Increase in HDL-C levels relative to baseline: about 26%
  Absolute change in HDL-C: 0.32 ± 0.22 mmol/L
  Absolute change in TC: 0.0 ± 0.6 mmol/L
  Absolute change in TC/HDL-C ratio: −0.9 ± 0.8
  Absolute change in LDL-C: −0.2 ± 0.6^ mmol/L
TC, HDL-C, LDL-C; 900 mg per day
  Decrease in TC/HDL-C ratio relative to baseline: about 23%
  Increase in HDL-C levels relative to baseline: about 34%
  Absolute change in HDL-C: 0.40 ± 0.29 mmol/L
  Absolute change in TC: 0.0 ± 0.6 mmol/L
  Absolute change in TC/HDL-C ratio: −1.2 ± 0.7
  Absolute change in LDL-C: -0.3 ± 0.6 mmol/L
